In ChEMBL document CHEMBL2321685, “Lead optimization of isocytosine-derived xanthine oxidase inhibitors” (Bioorg Med Chem Lett, 2013):
Blank lines part the entries; values can stand above or below the compound they belong to. Active and inactive are the calls of the source. The calls are words filed in the database; no cut-off is given here.

Legend:
[1] = target: Xanthine dehydrogenase/oxidase (Bos taurus, UniProt P80457)
Description: Inhibition of bovine xanthine oxidase-mediated uric acid production after 30 mins by spectrophotometric analysis

[2] = test system: Rattus norvegicus; experiment: Antihyperuricemic activity in po dosed rat assessed as reduction in potassium oxonate-induced serum uric acid level administered at 1 hr prior to potassium oxonate-challenge measured up to 5 hrs; type: functional
[3] = (§1) Metabolic stability in rat liver S9 fraction assessed as compound remaining after 60 mins; type: ADME, subcellular; conditions: liver S9 fraction, read-out: Stability
[4] = (§2) Metabolic stability in rat liver microsomes assessed as compound remaining after 60 mins; type: ADME, Microsome; conditions: liver microsomes, read-out: Stability
[5] = (§3) Metabolic stability in rat plasma assessed as compound remaining after 60 mins; type: ADME, cell-free; conditions: read-out: Stability
[6] = Tmax in Sprague-Dawley rat at 10 mg/kg, po; type: ADME, organism-based; design: dose 10 mg/kg, route oral; conditions: in vivo
[7] = (§4) Cmax in Sprague-Dawley rat at 10 mg/kg, po; type: ADME, organism-based; design: dose 10 mg/kg, route oral; conditions: Sprague-Dawley, in vivo
[8] = test system: Rattus norvegicus; experiment: Elimination half life in Sprague-Dawley rat assessed as 2-(4-(2-amino-6-hydroxypyrimidin-4-yl)-2-cyanophenoxy)-2-methylpropanoic acid level at 10 mg/kg, po; type: ADME, organism-based; design: dose 10 mg/kg, route oral; conditions: in vivo
[9] = test system: Rattus norvegicus; experiment: Cmax in Sprague-Dawley rat assessed as 2-(4-(2-amino-6-hydroxypyrimidin-4-yl)-2-cyanophenoxy)-2-methylpropanoic acid level at 10 mg/kg, po; type: ADME, organism-based; design: dose 10 mg/kg, route oral; conditions: in vivo
[10] = AUClast in Sprague-Dawley rat at 10 mg/kg, po; type: ADME, organism-based; design: time 0 - last, dose 10 mg/kg, route oral; conditions: plasma
[11] = test system: Rattus norvegicus; experiment: AUClast in Sprague-Dawley rat assessed as 2-(4-(2-amino-6-hydroxypyrimidin-4-yl)-2-cyanophenoxy)-2-methylpropanoic acid level at 10 mg/kg, po; type: ADME, organism-based, Plasma; design: time 0 - last, dose 10 mg/kg, route oral; conditions: in vivo
[12] = Elimination half life in Sprague-Dawley rat at 10 mg/kg, po; type: ADME, organism-based; design: dose 10 mg/kg, route oral; conditions: in vivo, read-out: beta t1/2 (converted)
[13] = test system: Rattus norvegicus; experiment: Tmax in Sprague-Dawley rat assessed as 2-(4-(2-amino-6-hydroxypyrimidin-4-yl)-2-cyanophenoxy)-2-methylpropanoic acid level at 10 mg/kg, po; type: ADME, organism-based; design: dose 10 mg/kg, route oral; conditions: in vivo
[14] = test system: Rattus norvegicus; experiment: Antihyperuricemic activity in rat assessed as reduction in potassium oxonate-induced serum uric acid level at 50 mg/kg, po administered at 1 hr prior to potassium oxonate-challenge measured up to 5 hrs relative to control; type: functional, organism-based; design: dose 50 mg/kg
[15] = Oral bioavailability in Sprague-Dawley rat at 10 mg/kg; type: ADME, organism-based; conditions: in vivo
[16] = Initial plasma concentration in Sprague-Dawley rat at 2 mg/kg, iv; type: ADME, organism-based; design: dose 2 mg/kg, route intravenous
[17] = Elimination half life in Sprague-Dawley rat at 2 mg/kg, iv; type: ADME, organism-based; design: dose 2 mg/kg, route intravenous; conditions: in vivo, read-out: beta t1/2 (converted)
[18] = AUClast in Sprague-Dawley rat at 2 mg/kg, iv; type: ADME, organism-based; design: time 0 - last, dose 2 mg/kg, route intravenous; conditions: plasma
[19] = Cmax in Sprague-Dawley rat at 2 mg/kg, iv; type: ADME, organism-based; design: dose 2 mg/kg, route intravenous; conditions: in vivo
[20] = test system: Rattus norvegicus; experiment: Antihyperuricemic activity in rat assessed as reduction in potassium oxonate-induced serum uric acid level at 10 mg/kg, po administered at 1 hr prior to potassium oxonate-challenge measured up to 5 hrs relative to allopurinol; type: functional; design: scale not given: the % may be the effect or the level left
[21] = Tmax in Sprague-Dawley rat at 2 mg/kg, iv; type: ADME, organism-based; design: dose 2 mg/kg, route intravenous; conditions: in vivo
[22] = Clearance in Sprague-Dawley rat at 2 mg/kg, iv; type: ADME, organism-based; design: dose 2 mg/kg, route intravenous; conditions: in vivo
[23] = Volume of distribution in Sprague-Dawley rat at 2 mg/kg, iv; type: ADME, organism-based; design: dose 2 mg/kg, route intravenous; conditions: in vivo
[24] = test system: Rattus norvegicus; experiment: Antihyperuricemic activity in rat assessed as reduction in potassium oxonate-induced serum uric acid level at 30 mg/kg, po administered at 1 hr prior to potassium oxonate-challenge measured up to 5 hrs relative to allopurinol; type: functional; design: scale not given: the % may be the effect or the level left
[25] = test system: Rattus norvegicus; experiment: Cmax in Sprague-Dawley rat assessed as Methyl 4-((4-(2-amino-6-hydroxypyrimidin-4-yl)-2-cyanophenoxy)methyl)cyclohexanecarboxylate level at 10 mg/kg, po; type: ADME, organism-based; design: dose 10 mg/kg, route oral; conditions: in vivo
[26] = test system: Rattus norvegicus; experiment: Elimination half life in Sprague-Dawley rat assessed as Methyl 4-((4-(2-amino-6-hydroxypyrimidin-4-yl)-2-cyanophenoxy)methyl)cyclohexanecarboxylate level at 10 mg/kg, po; type: ADME, organism-based; design: dose 10 mg/kg, route oral; conditions: in vivo
[27] = test system: Rattus norvegicus; experiment: AUClast in Sprague-Dawley rat assessed as Methyl 4-((4-(2-amino-6-hydroxypyrimidin-4-yl)-2-cyanophenoxy)methyl)cyclohexanecarboxylate level at 10 mg/kg, po; type: ADME, organism-based, Plasma; design: time 0 - last, dose 10 mg/kg, route oral; conditions: in vivo
[28] = test system: Rattus norvegicus; experiment: as §4; type: ADME, organism-based; design: dose 10 mg/kg, route oral; conditions: in vivo, BLD = below limit of detection
[29] = test system: Rattus norvegicus; experiment: Tmax in Sprague-Dawley rat assessed as Methyl 4-((4-(2-amino-6-hydroxypyrimidin-4-yl)-2-cyanophenoxy)methyl)cyclohexanecarboxylate level at 10 mg/kg, po; type: ADME, organism-based; design: dose 10 mg/kg, route oral; conditions: in vivo
[30] = test system: Liver; experiment: as §1; type: ADME, subcellular; conditions: s9, 1 h
[31] = test system: Liver microsomes; experiment: as §2; type: ADME, Microsome; conditions: microsomes, 1 h
[32] = test system: Plasma; experiment: as §3; type: ADME, cell-free; conditions: 1 h

Xanthine dehydrogenase/oxidase, sequence (P80457 whole entry): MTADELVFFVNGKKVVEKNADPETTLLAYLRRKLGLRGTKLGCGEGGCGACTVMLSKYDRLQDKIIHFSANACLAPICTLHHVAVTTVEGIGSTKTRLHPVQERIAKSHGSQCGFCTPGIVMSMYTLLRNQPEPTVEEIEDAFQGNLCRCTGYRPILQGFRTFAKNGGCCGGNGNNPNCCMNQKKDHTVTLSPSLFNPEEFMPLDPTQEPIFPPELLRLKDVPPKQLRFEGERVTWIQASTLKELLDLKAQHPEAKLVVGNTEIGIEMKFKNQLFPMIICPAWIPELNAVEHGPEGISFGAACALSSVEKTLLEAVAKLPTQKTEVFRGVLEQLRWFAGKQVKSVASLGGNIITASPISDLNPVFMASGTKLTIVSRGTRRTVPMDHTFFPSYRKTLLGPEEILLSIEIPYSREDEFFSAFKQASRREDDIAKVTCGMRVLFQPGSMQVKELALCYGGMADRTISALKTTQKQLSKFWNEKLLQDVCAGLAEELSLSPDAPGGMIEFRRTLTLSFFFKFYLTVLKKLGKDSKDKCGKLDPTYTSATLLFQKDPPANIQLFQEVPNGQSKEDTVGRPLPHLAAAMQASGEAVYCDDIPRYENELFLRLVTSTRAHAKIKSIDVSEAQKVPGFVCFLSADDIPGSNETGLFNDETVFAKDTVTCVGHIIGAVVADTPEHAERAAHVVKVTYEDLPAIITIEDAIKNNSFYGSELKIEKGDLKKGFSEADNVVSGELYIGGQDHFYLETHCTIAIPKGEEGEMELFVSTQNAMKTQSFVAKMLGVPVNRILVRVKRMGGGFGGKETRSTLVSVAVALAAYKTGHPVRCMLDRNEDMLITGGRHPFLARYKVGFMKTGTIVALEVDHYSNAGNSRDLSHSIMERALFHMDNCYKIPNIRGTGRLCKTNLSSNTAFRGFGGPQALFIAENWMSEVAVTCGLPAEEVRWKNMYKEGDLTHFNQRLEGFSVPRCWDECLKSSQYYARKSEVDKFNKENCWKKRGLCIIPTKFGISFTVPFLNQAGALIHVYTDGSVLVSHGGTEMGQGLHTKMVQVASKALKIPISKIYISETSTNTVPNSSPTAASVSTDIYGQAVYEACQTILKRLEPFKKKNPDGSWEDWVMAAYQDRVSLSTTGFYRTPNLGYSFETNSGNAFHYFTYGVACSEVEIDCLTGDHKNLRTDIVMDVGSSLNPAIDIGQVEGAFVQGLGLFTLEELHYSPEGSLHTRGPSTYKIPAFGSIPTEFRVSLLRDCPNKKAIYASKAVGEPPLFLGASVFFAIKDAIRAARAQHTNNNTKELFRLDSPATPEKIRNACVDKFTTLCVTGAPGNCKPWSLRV

Compound: COC(=O)C1CCC(COc2ccc(-c3ccnc(N)n3)cc2C#N)CC1 (centres undefined)
- IC50 [1]: 10 nM
- Activity [2]: Active
- remaining at 1 h [3]: 11%
- remaining at 1 h [4]: 0%
- remaining at 1 h [5]: 28%

Compound: COC(=O)C(C)(C)COc1ccc(-c2cc(O)nc(N)n2)cc1C#N
- Activity [14]: Active

Compound: CC(C)COc1ccc(-c2cc(O)ncn2)cc1C#N
- Activity [14]: Active

Compound: CC(C)(C)c1ccc(COc2ccc(-c3cc(=O)[nH]c(N)n3)cc2C#N)cc1
- IC50 [1]: 19 nM

Compound: N#Cc1cc(-c2ccnc(N)n2)ccc1OCc1ccc(F)cc1C(F)(F)F
- IC50 [1]: 80 nM

Compound: N#Cc1cc(-c2cc(=O)[nH]c(N)n2)ccc1OCc1ccc(F)cc1C(F)(F)F
- IC50 [1]: 11 nM

Compound: N#Cc1cc(-c2cc(=O)[nH]c(N)n2)ccc1OCc1ccc(C(=O)O)cc1
- IC50 [1]: 5 nM

Compound: N#Cc1cc(-c2cc(=O)[nH]c(N)n2)ccc1OCC1CCC1
- IC50 [1]: 18 nM

Compound: N#Cc1cc(-c2cc(=O)[nH]c(N)n2)ccc1OCc1ccccc1
- IC50 [1]: 17 nM

Compound: N#Cc1cc(-c2ccnc(N)n2)ccc1OCc1ccccc1C(F)(F)F
- IC50 [1]: 60 nM

Compound: CC(C)COc1ccc(-c2ccnc(N)n2)cc1C#N
- half-life [17]: 5.96 h
- AUC(0-t) [18]: 2990 ng·h/mL
- Cmax [19]: 9940 nM
- IC50 [1]: 80 nM
- Tmax [6]: 0.75 h
- Activity [2]: Dose-dependent effect
- ED50 [2]: 10 mg/kg
- bioavailability [15]: 13.4%
- Cmax [7]: 4190 nM
- remaining at 1 h [3]: 71.3%
- Activity [20]: 49%
- Tmax [21]: 1.8 min
- remaining at 1 h [4]: 21.2%
- remaining at 1 h [5]: 88.4%
- clearance [22]: 10.7 mL/min/kg
- C0 [16]: 3720 ng/mL
- AUC(0-t) [10]: 2000 ng·h/mL
- Vd [23]: 5.5 L/kg
- half-life [12]: 1.35 h
- Activity [24]: 70%

Compound: N#Cc1cc(-c2ccnc(N)n2)ccc1OCC1CCC1
- IC50 [1]: 400 nM

Compound: CCC(CC)COc1ccc(-c2cc(=O)[nH]c(N)n2)cc1C#N
- IC50 [1]: 10 nM

Compound: N#Cc1cc(-c2cc(=O)[nH]c(N)n2)ccc1OCC1CCC(C(=O)O)CC1 (centres undefined)
- IC50 [1]: 9 nM
- Tmax [6]: 4 h
- Cmax [7]: 50 nM
- remaining at 1 h [3]: 101%
- remaining at 1 h [4]: 90.6%
- remaining at 1 h [5]: 106%
- AUC(0-t) [10]: 119 ng·h/mL

Compound: N#Cc1cc(-c2ccnc(N)n2)ccc1OCC1CCCCC1
- IC50 [1]: 50 nM

Compound: N#Cc1cc(-c2ccnc(N)n2)ccc1OCc1ccc(F)cc1
- IC50 [1]: 150 nM

Compound: N#Cc1cc(-c2ccnc(N)n2)ccc1OCC1CCC(C(=O)O)CC1 (centres undefined)
- IC50 [1]: 10 nM
- Activity [2]: Active
- Stability [30]: Stable
- Stability [31]: Stable
- Stability [32]: Stable

Compound: CC(C)COc1ccc(-c2cc(=O)[nH]cn2)cc1C#N
- IC50 [1]: 60 nM
- Tmax [6]: 0.25 h
- Cmax [7]: 1150 nM
- remaining at 1 h [3]: 13.5%
- remaining at 1 h [4]: 49.6%
- remaining at 1 h [5]: 90.5%
- AUC(0-t) [10]: 416 ng·h/mL
- half-life [12]: 9.88 h

Further lines, with some results ahead:

- IC50 [1]: 3900 nM
Compound: CC(C)COc1ccc(-c2cc(C(N)=O)nc(N)n2)cc1C#N

- IC50 [1]: 15 nM
- Tmax [6]: 0.75 h
- Cmax [7]: 40 nM
- remaining at 1 h [3]: 93.6%
- remaining at 1 h [4]: 95.9%
- remaining at 1 h [5]: 30.2%
- beta t1/2 [8]: 11.6 h
- Cmax [9]: 8460 nM
- AUC(0-t) [10]: 44.8 ng·h/mL
- AUClast [11]: 22699.83 ng·h/mL
- half-life [12]: 2.04 h
- Tmax [13]: 4 h
Compound: COC(=O)C(C)(C)COc1ccc(-c2cc(=O)[nH]c(N)n2)cc1C#N

- IC50 [1]: 4 nM
- Tmax [6]: 0.5 h
- Cmax [7]: 160 nM
- remaining at 1 h [5]: 99.7%
- AUC(0-t) [10]: 297 ng·h/mL
- half-life [12]: 10.7 h
Compound: CC(C)(C)COc1ccc(-c2cc(=O)[nH]c(N)n2)cc1C#N

- IC50 [1]: 9 nM
Compound: COC(=O)c1ccc(COc2ccc(-c3cc(O)nc(N)n3)cc2C#N)cc1

- bioavailability [15]: 8.6%
- remaining at 1 h [3]: 65.6%
- remaining at 1 h [4]: 91.5%
- remaining at 1 h [5]: 96%
- C0 [16]: 1360 ng/mL
Compound: CC(C)COc1ccc(-c2cc(=O)[nH]c(N)n2)cc1C#N

- IC50 [1]: 13 nM
Compound: CC(C)C(C)Oc1ccc(-c2cc(O)nc(N)n2)cc1C#N (centres undefined)

- IC50 [1]: 7 nM
Compound: N#Cc1cc(-c2cc(O)nc(N)n2)ccc1OCc1ccc(F)cc1

- IC50 [1]: 10 nM
- Tmax [6]: 1 h
- Cmax [7]: 40 nM
- remaining at 1 h [3]: 86.8%
- remaining at 1 h [4]: 97.3%
- remaining at 1 h [5]: 94%
- AUC(0-t) [10]: 109 ng·h/mL
- half-life [12]: 18 h
Compound: N#Cc1cc(-c2cc(O)nc(N)n2)ccc1OCC1CCCCC1

- IC50 [1]: 9 nM
Compound: N#Cc1cc(-c2cc(O)nc(N)n2)ccc1OCc1ccccc1C(F)(F)F

- IC50 [1]: > 30000 nM
Compound: Cc1nc(O)cc(-c2ccc(OCC(C)C)c(C#N)c2)n1

- IC50 [1]: 400 nM
Compound: CC(C)COc1ccc(-c2cc(C(=O)O)nc(N)n2)cc1C#N

- IC50 [1]: 160 nM
Compound: COc1ccc(-c2cc(O)nc(N)n2)cc1C#N

- IC50 [1]: 5 nM
- Cmax [7]: 6600 nM
- remaining at 1 h [3]: 98.9%
- remaining at 1 h [4]: 90.2%
- remaining at 1 h [5]: 33.9%
- AUC(0-t) [10]: 19500 ng·h/mL
- half-life [12]: 4 h
Compound: CC(C)(COc1ccc(-c2cc(O)nc(N)n2)cc1C#N)C(=O)O

- IC50 [1]: 19 nM
- Cmax [25]: 340 nM
- beta t1/2 [26]: 3.9 h
- AUClast [27]: 795.24 ng·h/mL
- Cmax [28]: BLD
- remaining at 1 h [3]: 0%
- remaining at 1 h [4]: 0%
- remaining at 1 h [5]: 0%
- Tmax [29]: 2 h
Compound: COC(=O)C1CCC(COc2ccc(-c3cc(O)nc(N)n3)cc2C#N)CC1 (centres undefined)
- Activity [14]: Active
